Measured values taken from ChEMBL document CHEMBL1154584, “Hachijodines A-G: seven new cytotoxic 3-alkylpyridine alkaloids from two marine sponges of the genera Xestospongia and amphimedon” (2000).

What follows are molecules tested on P388 (assay: Cytotoxicity against mouse P388 cells).
Assay type: functional
`CONCCCCCCCCCCC(C)Cc1cccnc1` (configuration not stated) [HACHIJODINE D] was tested, and the Activity was 2.2 µg/mL. `CONCC(C)CCCCCCCCCCc1cccnc1` (configuration not stated) [HACHIJODINE C] gave an Activity of 2.2 µg/mL. `CONCCC(C)CCCCCCCCCc1cccnc1` (configuration not stated) [HACHIJODINE B] showed an Activity of 2.2 µg/mL. `CN(O)CCCCCCCCCCCCCc1cccnc1` [HACHIJODINE E] showed an Activity of 2.3 µg/mL. `CN(O)CCCCCCCC/C=C\C#CCCCCc1cccnc1` [HACHIJODINE G] was tested, and the Activity was 1 µg/mL. `CONCCCCCCCCCCCCc1cccnc1` [HACHIJODINE A] was tested, and the Activity was 2.2 µg/mL. `CN(O)CCCCCCCCC#CCCCCc1cccnc1` [HACHIJODINE F] showed an Activity of 1 µg/mL.
